Source: patent publication US9926281B2 (priority 2014, dated 2018)

Tests used:
human ADAMTS-5 = human ADAMTS-5 (Homo sapiens (Human), UniProt Q9UNA0); conditions: read-out: hADAMTS-5 potency IC50
Protocol: Finally, the fluorescence is read on the Envision (Perkin Elmer) after an incubation of 90 min at 37° C.

human TACE = human TACE (Homo sapiens (Human), UniProt P78536); conditions: read-out: TACE potency IC50
Sequence of human TACE (P78536 whole entry, looked up, change not shown): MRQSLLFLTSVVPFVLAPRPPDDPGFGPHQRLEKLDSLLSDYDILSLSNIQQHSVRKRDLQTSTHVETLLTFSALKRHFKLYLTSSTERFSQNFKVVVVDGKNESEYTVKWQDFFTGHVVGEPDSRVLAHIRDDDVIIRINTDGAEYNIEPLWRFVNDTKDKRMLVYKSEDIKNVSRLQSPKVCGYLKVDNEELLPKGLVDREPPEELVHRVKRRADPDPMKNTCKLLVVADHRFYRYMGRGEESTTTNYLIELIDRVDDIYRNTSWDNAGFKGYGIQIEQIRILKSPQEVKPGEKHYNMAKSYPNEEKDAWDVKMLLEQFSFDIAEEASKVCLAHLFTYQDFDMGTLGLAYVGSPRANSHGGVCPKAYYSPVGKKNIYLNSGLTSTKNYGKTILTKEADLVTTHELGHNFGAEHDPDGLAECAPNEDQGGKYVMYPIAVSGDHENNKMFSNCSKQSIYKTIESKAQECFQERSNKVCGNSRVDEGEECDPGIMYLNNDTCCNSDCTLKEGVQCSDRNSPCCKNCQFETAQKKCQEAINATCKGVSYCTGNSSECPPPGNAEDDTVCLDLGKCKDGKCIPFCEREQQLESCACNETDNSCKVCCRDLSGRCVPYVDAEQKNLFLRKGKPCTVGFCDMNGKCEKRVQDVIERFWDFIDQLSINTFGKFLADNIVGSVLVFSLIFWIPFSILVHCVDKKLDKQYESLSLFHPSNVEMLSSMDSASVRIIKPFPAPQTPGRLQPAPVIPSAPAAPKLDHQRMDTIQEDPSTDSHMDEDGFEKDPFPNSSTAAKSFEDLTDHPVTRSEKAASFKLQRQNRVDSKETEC

Sequence of human ADAMTS-5 (Q9UNA0 262-930): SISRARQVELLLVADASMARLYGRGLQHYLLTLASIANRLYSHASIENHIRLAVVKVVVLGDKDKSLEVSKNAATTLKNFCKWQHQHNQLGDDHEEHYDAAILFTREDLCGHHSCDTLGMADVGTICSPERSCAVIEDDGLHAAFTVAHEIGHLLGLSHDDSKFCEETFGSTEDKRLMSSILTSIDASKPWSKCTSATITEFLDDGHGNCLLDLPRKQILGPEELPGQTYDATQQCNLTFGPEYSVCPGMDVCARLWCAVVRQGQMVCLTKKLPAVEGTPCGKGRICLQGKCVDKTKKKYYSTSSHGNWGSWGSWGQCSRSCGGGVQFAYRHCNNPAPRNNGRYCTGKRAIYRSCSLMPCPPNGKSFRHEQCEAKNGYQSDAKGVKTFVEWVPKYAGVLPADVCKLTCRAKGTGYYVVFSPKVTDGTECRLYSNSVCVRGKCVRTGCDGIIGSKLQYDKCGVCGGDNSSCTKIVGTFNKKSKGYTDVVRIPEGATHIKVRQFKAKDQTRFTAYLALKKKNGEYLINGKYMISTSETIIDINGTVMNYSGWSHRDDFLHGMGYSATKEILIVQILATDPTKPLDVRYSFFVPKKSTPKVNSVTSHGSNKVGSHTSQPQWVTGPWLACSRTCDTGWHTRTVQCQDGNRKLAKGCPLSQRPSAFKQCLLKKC

Compound	IC50 (human ADAMTS-5)	IC50 (human TACE)
CC(CC1(CCN)NC(=O)NC1=O)C(=O)N1CCN(c2ccc(F)c(F)c2)CC1 (stereo not drawn) [Cpd 241, 5-(2-aminoethyl)-5-[3-[4-(3,4-difluorophenyl)piperazin-1-yl]-2-methyl-3-oxo-propyl]imidazolidine-2,4-dione]	232 nM	> 12000 nM
C[C@H]1CN(C(=O)C(CO)CC2(C)NC(=O)NC2=O)CCN1c1cccc(F)c1 (stereo partly drawn) [Cpd 268, 5-[3-[(3S)-4-(3-fluorophenyl)-3-methyl-piperazin-1-yl]-2-(hydroxymethyl)-3-oxo-propyl]-5-methyl-imidazolidine-2,4-dione]	62 nM	> 4000 nM
C[C@H]1CN(C(=O)CCC2(C3CC3)NC(=O)NC2=O)CCN1c1cccnn1 (stereo partly drawn) [Cpd 302, 5-cyclopropyl-5-[3-(3S)-3-methyl-4-pyridazin-3-yl-piperazin-1-yl-3-oxo-propyl]imidazolidine-2,4-dione]	776 nM	> 20000 nM
C[C@H]1CN(C(=O)CCC2(C3CC3)NC(=O)NC2=O)CCN1c1cccc(-c2cnccn2)c1 (stereo partly drawn) [Cpd 372, S-Cyclopropyl-5-{3-[(S)-3-methyl-4-(3-pyrazin-2-yl-phenyl)-piperazin-1-yl]-3-oxo-propyl}-imidazolidine-2,4-dione]	2390 nM	> 20000 nM
C[C@@H](C[C@@]1(C2CC2)NC(=O)NC1=O)C(=O)N1CCN(c2cc(F)cc(-c3cn[nH]c3)c2)[C@@H](C)C1 [Cpd 379, 5-cyclopropyl-5-[3-[(3S)-4-[3-fluoro-5-(1H-pyrazol-4-yl)phenyl]-3-methyl-piperazin-1-yl]-2-methyl-3-oxo-propyl]imidazolidine-2,4-dione]	18 nM	1490 nM
CC(CC1(C2CN(C)C2)NC(=O)NC1=O)C(=O)N1CCN(c2ccc(F)c(F)c2)[C@@H](C)C1 (stereo partly drawn) [Cpd 399, 5-[3-[(3S)-4-(3,4-difluorophenyl)-3-methy-piperazin-1-yl]-2-methyl-3-oxo-propy]-5-(1-methylazetidin-3-yl)imidazolidine-2,4-dione]	163 nM	
Cc1cc(N2CCN(C(=O)CCC3(CC(=O)NCCO)NC(=O)NC3=O)CC2)ccc1Cl (stereo not drawn) [Cpd 402, 2-[4-[3-[4-(4-chloro-3-methyl-phenyl)piperazin-1-yl]-3-oxo-propyl]-2,5-dioxo-imidazolidin-4-yl]-N-(2-hydroxyethyl)acetamide]	732 nM	
CN(C)CCC1(CCC(=O)N2CCN(c3cccc(Cl)c3)CC2)NC(=O)NC1=O (stereo not drawn) [compound 44, 5-[3-[4-(3-chlorophenyl)piperazin-1-yl]-3-oxo-propyl]-5-(2-dimethylaminoethyl)imidazolidine-2,4-dione]		> 20000 nM
CNc1ccccc1N1CCN(C(=O)CCC2(C3CC3)NC(=O)NC2=O)CC1 (stereo not drawn) [compound 185, 5-cyclopropyl-5-[3-[4-[2-(methylamino)phenyl]piperazin-1-yl]-3-oxo-propyl]imidazolidine-2,4-dione]	> 4000 nM	
Cc1cc(Cl)c(F)cc1N1CCN(C(=O)CCC2(C)NC(=O)NC2=O)C[C@@H]1C (stereo partly drawn) [compound 202, 5-[3-[(3S)-4-(4-chloro-5-fluoro-2-methyl-phenyl)-3-methyl-piperazin-1-yl]-3-oxo-propyl]-5-methyl-imidazolidine-2,4-dione]	724 nM	
COCCOCC1(CC(C)C(=O)N2CCN(c3cc(Cl)cc(Cl)c3)[C@@H](C)C2)NC(=O)NC1=O (stereo partly drawn) [compound 221, 5-[3-[(3S)-4-(3,5-dichlorophenyl)-3-methyl-piperazin-1-yl]-2-methyl-3-oxo-propyl]-5-(2-methoxyethoxymethyl)imidazolidine-2,4-dione]		3200 nM
Cc1cc(CC(CC2(C)NC(=O)NC2=O)C(=O)N2CCN(c3cc(Cl)cc(Cl)c3)CC2)n(C)n1 (stereo not drawn) [compound 238, 5-[3-[4-(3,5-dichlorophenyl)piperazin-1-yl]-2-[(2,5-dimethylpyrazol-3-yl)methyl]-3-oxo-propyl]-5-methyl-imidazolidine-2,4-dione]	141 nM	3160 nM
CC(CC1(C2CN(C(=O)OC(C)(C)C)C2)NC(=O)NC1=O)C(=O)N1CCN(c2ccc(F)c(F)c2)[C@@H](C)C1 (stereo partly drawn) [compound 239, tert-butyl 3-[4-[3-[(3S)-4-(3,4-difluorophenyl)-3-methyl-piperazin-1-yl]-2-methyl-3-oxo-propyl]-2,5-dioxo-imidazolidin-4-yl]azetidine-1-carboxylate]	46 nM	> 4000 nM
CC(CC1(C2CNC2)NC(=O)NC1=O)C(=O)N1CCN(c2ccc(F)c(F)c2)CC1 (stereo not drawn) [compound 240, 5-(azetidin-3-yl)-5-[3-[4-(3,4-difluorophenyl)piperazin-1-yl]-2-methyl-3-oxo-propyl]imidazolidine-2,4-dione]	194 nM	> 20000 nM
CC(CC1(C)NC(=O)NC1=O)C(=O)N1C[C@@H](C)N(c2cc(Cl)cc(Cl)c2)[C@@H](C)C1 (stereo partly drawn) [compound 243, 5-[3-[(3R,5S)-4-(3,5-dichlorophenyl)-3,5-dimethyl-piperazin-1-yl]-2-methyl-3-oxo-propyl]-5-methyl-imidazolidine-2,4-dione]	> 3890 nM	> 19500 nM
CC(CC1(c2ccccn2)NC(=O)NC1=O)C(=O)N1CCN(c2ccc(F)c(Cl)c2)[C@@H](C)C1 (stereo partly drawn) [compound 245, 5-[3-[(3S)-4-(3-chloro-4-fluoro-phenyl)-3-methyl-piperazin-1-yl]-2-methyl-3-oxo-propyl]-5-(2-pyridyl)imidazolidine-2,4-dione]	17 nM	
CC(CC1(CN2CCOCC2)NC(=O)NC1=O)C(=O)N1CCN(c2cc(Cl)cc(Cl)c2)[C@@H](C)C1 (stereo partly drawn) [compound 246, 5-[3-[(3S)-4-(3,5-dichlorophenyl)-3-methyl-piperazin-1-yl]-2-methyl-3-oxo-propyl]-5-(morpholinomethyl)imidazolidine-2,4-dione]	114 nM	> 19500 nM
CC(=O)N1CC(C2(CC(C)C(=O)N3CCN(c4ccc(F)c(F)c4)CC3)NC(=O)NC2=O)C1 (stereo not drawn) [compound 248, 5-(1-acetylazetidin-3-yl)-5-[3-[4-(3,4-difluorophenyl)piperazin-1-yl]-2-methyl-3-oxo-propyl]imidazolidine-2,4-dione]	49 nM	> 3780 nM
CC(CC1(CN2CCC(F)(F)C2)NC(=O)NC1=O)C(=O)N1CCN(c2cc(Cl)cc(Cl)c2)CC1 (stereo not drawn) [compound 252, 5-[3-[4-(3,5-dichlorophenyl)piperazin-1-yl]-2-methyl-3-oxo-propyl]-5-[(3,3-difluoropyrrolidin-1-yl)methyl]imidazolidine-2,4-dione]	67 nM	2690 nM
CC(CC1(CN2CCC(F)(F)C2)NC(=O)NC1=O)C(=O)N1CCN(c2ccc(F)c(Cl)c2)[C@@H](C)C1 (stereo partly drawn) [compound 253, 5-[3-[(3S)-4-(3-chloro-4-fluoro-phenyl)-3-methyl-piperazin-1-yl]-2-methyl-3-oxo-propyl]-5-[(3,3-difuoropyrrolidin-1-yl)methyl]imidazolidine-2,4-dione]	35 nM	> 20000 nM
CC1(CC(CC#N)C(=O)N2CCN(c3cc(Cl)cc(Cl)c3)CC2)NC(=O)NC1=O (stereo not drawn) [compound 254, 4-[4-(3,5-dichlorophenyl)piperazin-1-yl]-3-[(4-methyl-2,5-dioxo-imidazolidin-4-yl)methyl]-4-oxo-butanenitrile]	71 nM	1000 nM
C[C@H]1CN(C(=O)CCC2(C3CC3)NC(=O)NC2=O)CCN1c1cc(Cl)ncn1 (stereo partly drawn) [compound 256, 5-[3-[(3S)-4-(6-chloropyrimidin-4-yl)-3-methyl-piperazin-1-yl]-3-oxo-propyl]-5-cyclopropyl-imidazolidine-2,4-dione]	1410 nM	> 20000 nM
Cc1c(Cl)cc(F)cc1N1CCN(C(=O)CCC2(C)NC(=O)NC2=O)CC1 (stereo not drawn) [compound 293, 5-[3-[4-(3-chloro-5-fluoro-2-methyl-phenyl)piperazin-1-yl]-3-oxo-propyl]-5-methyl-imidazolidine-2,4-dione]	294 nM	
C[C@H]1CN(C(=O)CCC2(C3CC3)NC(=O)NC2=O)CCN1c1ccc2ncsc2c1 (stereo partly drawn) [compound 305, 5-[3-[(3S)-4-(1,3-benzothiazol-6-yl)-3-methyl-piperazin-1-yl]-3-oxo-propyl]-5-cyclopropyl-imidazolidine-2,4-dione]		> 20000 nM
Cc1cc(N2CCN(C(=O)CC[C@@]3(C)NC(=O)NC3=O)CC2)cc(C)c1Cl [compound 401, (5R)-5-[3-[4-(4-chloro-3,5-dimethyl-phenyl)piperazin-1-yl]-3-oxo-propyl]-5-methyl-imidazolidine-2,4-dione]	1120 nM	
C[C@@H]1CN(C(=O)CC[C@@]2(C3CC3)NC(=O)NC2=O)CCN1c1cc(F)cc(F)c1 [compound 403, (5S)-5-cyclopropyl-5-[3-[(3R)-4-(3,5-difluorophenyl)-3-methyl-piperazin-1-yl]-3-oxo-propyl]imidazolidine-2,4-dione]	168 nM	
COCCOCC1(CC(C)C(=O)N2CCN(c3cc(Cl)cc(Cl)c3)[C@@H](C)C2)NC(=O)NC1=O (stereo partly drawn) [compound 426, 5-(3-((S)-4-(3,5-dichlorophenyl)-3-methylpiperazin-1-yl)-2-methyl-3-oxopropyl)-5-((2-methoxyethoxy)methyl)imidazolidine-2,4-dione]	110 nM	
CC(CC1(c2ccccn2)NC(=O)NC1=O)C(=O)N1CCN(c2ccc(F)c(Cl)c2)[C@@H](C)C1 (stereo partly drawn) [compound 437, 5-(3-((S)-4-(3-chloro-4-fluorophenyl)-3-methylpiperazin-1-yl)-2-methyl-3-oxopropyl)-5-(pyridin-2-yl)imidazolidine-2,4-dione]	17 nM	
Cc1cccc(C2(CCC(=O)N3CCN(c4ccc(Cl)c(Cl)c4)[C@@H](C)C3)NC(=O)NC2=O)n1 (stereo partly drawn) [compound 452, 5-[3-[(3S)-4-(3,4-dichlorophenyl)-3-methyl-piperazin-1-yl]-3-oxo-propyl]-5-(6-methyl-2-pyridyl)imidazolidine-2,4-dione]	23 nM	
C[C@H]1CN(C(=O)CCC2(c3ccccn3)NC(=O)NC2=O)CCN1c1ccc(F)c(Cl)c1 (stereo partly drawn) [compound 457, 5-[3-[(3S)-4-(3-chloro-4-fluoro-phenyl)-3-methyl-piperazin-1-yl]-3-oxo-propyl]-5-(2-pyridyl)imidazolidine-2,4-dione]	47 nM	
